Measured values: patent US20010012854A1, “MULTICATALYTIC PROTEASE INHIBITORS FOR USE AS ANTI-TUMOR AGENTS” (priority 1997, published 2001)
pIC50: −log10 of the molar value.

Assays:
MCF-7 breast carcinoma = assay: Calcein-AM viability assay, MCF-7; type: cell-based; details: Homo sapiens, MCF7
Description: (§1) Cells were initially seeded in 96-well plates at varying density, then assayed using the Calcein-AM viability assay after 24 hours to determine the optimal final density for each cell type. Cells were then seeded in 96-well plates at this density in 100 μL of the proper cell media as follows:
(§2) Serial dilutions of the compounds were made so that concentrations were twice the desired concentration to be evaluated. When 100 μL of the dilution was then added to the cells plated in 100 μL of media, a final concentration of 0, 11.7, 46.9, 187.5, 375 and 750 nM was obtained. Compounds were added to the plates three to four hours after seeding the cells, then the plates were incubated at 37° C. for the desired time point (generally one, two, or three day incubations).
(§3) Calcein-AM viability assays were conducted at the desired time points as follows. Media were aspirated using a manifold and metal plate to leave approximately 50 μL/well. The wells were then washed three times with 200 μL DPBS (Gibco), aspirating each time with the manifold to leave 50 μL/well. A 8 μM solution of Calcein-AM (Molecular Probes) in DPBS was prepared and 150 μL was added to each well. The plates were then incubated at 37° C. for 30 minutes. […] After the final aspiration, fluorescence was measured using a Cytofluor 2300 fluorescence plate reader. […]

[1] = system: PANC-1 pancreatic carcinoma; assay: Calcein-AM viability assay, PANC-1; type: cell-based; details: Homo sapiens
Description: as §1, §2, §3

[2] = system: OVCAR-3 ovarian carcinoma; assay: Calcein-AM viability assay, OVCAR-3; type: cell-based; details: Homo sapiens
Description: as §1, §2, §3

[3] = system: AT-2 (rat) prostatic carcinoma; assay: Calcein-AM viability assay, AT-2; type: cell-based
Description: as §1, §2, §3

SKMEL-5 melanoma = assay: Calcein-AM viability assay, SKMEL-5; type: cell-based; details: Homo sapiens, SK-MEL-5
Description: as §1, §2, §3

[4] = system: Lewis Lung carcinoma xenografts; assay: In vivo growth of Lewis Lung carcinoma xenografts in athymic nude mice; parameters: species or system murine; details: 3 mg/kg, s.c., QD, 5 days a week, 12 days
Description: Female athymic nude mice were injected s.c. with 1×10^6 Lewis Lung carcinoma cells into the right rear flank. Upon tumors achieving 150 to 200 mm^3 in volume, mice were randomized into groups of ten animals each and dosing commenced with Compound I (2 mg/kg, s.c., QD, 5 days a week), Compound J (3 mg/kg, s.c., QD, 5 days a week), or vehicle alone (30% Solutol) for a total of 12 days. Tumor measurements (volume) were determined with vernier calipers in two dimensions every two to three days. Statistical analyses of drug-associated anti-tumor efficacy relative to vehicle-treated controls were conducted using the Mann-Whitney Rank sum test.

[5] = system: DU145 prostatic carcinoma; assay: Calcein-AM viability assay, DU-145; type: cell-based; details: Homo sapiens
Description: as §1, §2, §3

[6] = system: Lewis lung (murine) lung carcinoma; assay: Calcein-AM viability assay, Lewis Lung; type: cell-based; details: Mus musculus
Description: as §1, §2, §3

[7] = target: MCP chymotrypsin-like activity (Homo sapiens, UniProt P28074); assay: Inhibition of MCP chymotrypsin-like activity; type: biochemical
Description: (§4) The rank-order potency for Jurkat cell killing precisely matched the order for MCP inhibition (Table 2, below).
Inhibition of the chymotrypsin-like activity of MCP by the disclosed MCP inhibitors has been reported, but these MCP inhibitors produced relatively little inhibition on the MCP trypsin-like activity and cathepsin B, a vacuolar cysteine protease (Iqbal, M., et al. J. Med Chem. 38: 2276-2277, 1995; Iqbal, M., et al. Bioorg. Med. Chem. Lett. 6: 287-290, 1996; and Harding, C. V., et al. J. Immuno. 155: 1767-1775, 1995). Furthermore, the order of potency for inhibition of the chymotrypsin-like activity was reported to be Compound A>Compound B>Compound C by using both isolated MCP and intact murine B cells (Iqbal, M., et al. J. Med Chem. 38: 2276-2277, 1995; Iqbal, M., et al. Bioorg. Med. Chem. Lett. 6: 287-290, 1996; and Harding, C. V., et al. J. Immuno. 155: 1767-1775, 1995).

[8] = system: murine melanoma cell line, B16-F0; assay: In vivo B16-F0 melanoma tumor growth in C57BL mice; details: 10 mg/kg/day, ip
Description: a. Materials: MCP inhibitors used for in vivo studies (Compounds D and E) were each formulated in 25% Solutol.
b. Cell line: The murine melanoma cell line, B16-F0, was grown at 37° C. in a humidified incubator, with a 95% air/5% CO2 atmosphere, in Dulbecco's modified Eagle's medium with 4.5 g/l glucose (Cellgro/Mediatech, Washington, D.C.) containing 10% fetal bovine serum (Hyclone Labs, Logan, Utah), 2 mM glutamine (GibcoBRL, Long Island, N.Y.), penicillin (100 I.U./mL) (GibcoBRL), and streptomycin (100 μg/mL) (GibcoBRL). The cells were determined to be free of mycoplasma and rodent viruses (MAP testing). Exponentially growing cells were harvested using 5 mL of warm trypsin/EDTA (0.05%, 0.5 mM)((GibcoBRL). The total volume was brought up to 10 mL with Complete Medium to neutralize trypsin and cells were counted with a hemocytometer. The cells were then collected by brief centrifugation and the cell pellet was resuspended in Phosphate Buffered Saline (GibcoBRL) to achieve the final concentration of 1×10^7 live cells/ml.
c. Animals: Female C57BL mice (20-25 g) obtained from Harlan Sprague Dawley, Indianapolis, Ind. were maintained five mice/cage and given a commercial diet and water ad libitum. […]
e. Tumor measurements: Tumors were measured using a vernier caliper every 2 to 3 days. Tumor volume was calculated using the formula: […]

[9] = system: Jurkat Human T Cell Leukemia Line; assay: Jurkat cell viability assay (XTT reduction); type: cell-based; details: Jurkat cells, 24 hours, viability by XTT reduction, read-out: Toxicity (IC50)
Description: f. Cell viability assay. Jurkat cells were treated with MCP inhibitors or vehicle for 30 min. at 37° C. Next, ionomycin (1 μM) and the phorbol ester PMA (10 ng/ml) were added, together with 0.2% ethanol. After 24 h, cell viability was assessed by reduction of XTT (Sigma, X4251). To each well, 50 μl of XTT (1 mg/ml) and 25 μl PMS (Sigma 9625, 5 mM) were added. After 3 h at 37° C., the OD of each well was read at 450 nm/690 nm by a plate reader.
as §4

| pIC50 (MCF-7 breast carcinoma; MCF-7, 24 h) | pIC50 (MCF-7 breast carcinoma; MCF-7, 72 h) | pIC50 ([1]; PANC-1, 24 h) | pIC50 ([1]; PANC-1, 72 h) | pIC50 ([2]; OVCAR-3, 24 h) | pIC50 ([2]; OVCAR-3, 72 h) | pIC50 ([3]; AT-2, 24 h) | pIC50 ([3]; AT-2, 72 h) | pIC50 (SKMEL-5 melanoma; SKMEL-5, 24 h) | pIC50 (SKMEL-5 melanoma; SKMEL-5, 72 h) | pIC50 ([5]; DU-145, 24 h) | pIC50 ([5]; DU-145, 72 h) | pIC50 ([6]; 24 h) | pIC50 ([6]; 72 h) | pIC50 [7] | SMILES | Lung carcinoma tumor growth (tumor volume) [4] | Melanoma tumor growth (tumor volume) [8] | pIC50 [9] |
| --- | --- | --- | --- | --- | --- | --- | --- | --- | --- | --- | --- | --- | --- | --- | --- | --- | --- | --- |
| < 6.00 | 6.54 | < 6.00 | 6.73 | < 6.00 | 7.54 | < 6.00 | < 6.00 | 6.37 | 7.09 | 6.41 | 6.78 | 6.39 | 6.30 | – | CC(C)C[C@@H](NC(=O)[C@H](CCCN/C(N)=N/[N+](=O)[O-])NC(=O)C(CCCCCCCCN1C(=O)c2ccccc2C1=O)C1CCCC1)B1O[C@H]2CC3CC(C3(C)C)C2(C)O1 (stereo partly shown) [Compound J] | inhibit lung carcinoma tumor growth | – | – |
| – | – | – | – | – | – | – | – | – | – | – | – | – | – | 8.30 | CC(C)C[C@H](NC(=O)[C@H](CCCNC(N)=N[N+](=O)[O-])NC(=O)C(CCCCCCCCC#N)C1CCCC1)B(O)O (stereo partly shown) [D] | – | inhibit melanoma tumor growth | 6.22 |
| – | – | – | – | – | – | – | – | – | – | – | – | – | – | – | CC(C)C[C@H](NC(=O)[C@H](CCCN/C(N)=N/[N+](=O)[O-])NC(=O)C(CCCCCCCCN1C(=O)c2ccccc2C1=O)C1CCCC1)B(O)O (stereo partly shown) [E] | – | inhibit melanoma tumor growth | – |
